Test results as given in publication PMC3769975 (ChemMedChem, 2012).
In brackets after ≈: the same amount, converted by molar mass. Like-named read-outs stand apart in the source and are kept apart here.

Legend:
[1] = test system: WSN-Ren luciferase virus (influenza A/WSN/33) in MDCK-HA cells; experiment: microbe, parasite or virus in culture; format: cell-based, influenza A/WSN/33 (H1N1)
[2] = biological target: recombinant neuraminidase N1 (A/California/04/09) (Influenza A virus (A/California/04/2009(H1N1)), UniProt C3W5S3); experiment: Fluorescent neuraminidase assay; format: biochemical, influenza A/California/04/09; conditions: serial dilutions from 100 μM to 6.4 nM
[3] = test system: WSN-Ren luciferase virus in MDCK-HA cells; format: cell-based, influenza A/WSN/33 (H1N1)
panel of 13 kinases = experiment: Kinase panel inhibition; format: biochemical; conditions: concentrations up to 5 μM
[4] = 1D proton NMR solubility experiment; format: physicochemical; conditions: PBS with 2% DMSO, aqueous buffer, kinetic from dmso stock
[5] = test system: wild type influenza A/WSN/33 virus in A549 cells; experiment: qRT-PCR of viral NP mRNA, A549 cells infected with wild type WSN virus; format: cell-based, influenza A/WSN/33 (H1N1); conditions: 10 μM, 1 μM and 0.1 μM

Row | SMILES | anti-influenza activity (in words, SAR discussion) [1] | EC50 ([1]; Influenza A virus, WSN) [nM] | further results
1 | CCC(C)(C)n1nnnc1C(NCc1cc2cc(C)c(C)cc2[nH]c1=O)C(C)C (stereo not shown) [Compound 23, 6,7-dimethyl-3-(((2-methyl-1-(1-(tert-pentyl)-1H-tetrazole-5-yl)propyl)amino)methyl)quinolin-2(1H)-one] | inactivation | > 100000 | –
2 | CCOC(=O)C1=C[C@@H](OC(CC)CC)[C@H](NC(C)=O)[C@@H](N)C1 [oseltamivir phosphate, reference compound] | – | ~0.5 | potency relative to best compounds of Table 1 [1]: roughly 100 fold
3 | Cc1cc2cc(CNC(=O)c3ccccc3)c(=O)[nH]c2cc1C [Compound 24, N-((6,7-dimethyl-2-oxo-1,2-dihydroquinolin-3-yl)methyl)benzamide] | not sufficient | > 100000 | –
4 | Cc1cc2cc(CNCCO)c(=O)[nH]c2cc1C [Compound 6, 3-((2-hydroxyethylamino)methyl)-6,7-dimethylquinolin-2(1H)-one] | did not elicit any anti-influenza activity | > 100000 | –
5 | CCC(C)(C)n1nnnc1C(C(C)C)N(Cc1cc2cc(C)c(C)cc2[nH]c1=O)CC1CCCO1 (stereo not shown) [Compound 25, 6,7-dimethyl-3-(((2-methyl-1-(1-(tert-pentyl)-1H-tetrazol-5-yl)propyl)((tetrahydrofuran-2-yl)methyl)amino)methyl)quinolin-2(1H)-one] | low micromolar range | ~3000 | EC50 [1]: 2950 nM
6 | CCC(C)(C)n1nnnc1C(C(C)C)N(CCO)Cc1cc2cc(C)c(C)cc2[nH]c1=O (stereo not shown) [Compound 7, 3-(((2-hydroxyethyl)(2-methyl-1-(1-tert-pentyl-1H-tetrazole-5-yl)propyl)amino)methyl)-6,7-dimethylquinolin-2(1H)-one] | – | 45.6 | activity against neuraminidase [2]: ineffective; viral NP mRNA expression compared to DMSO treated controls [3]: reduction of the NP mRNA expression; viral replication (NP mRNA) after 26 hour incubation ([3]; 10 μM): minimal viral replication; inhibition of selected kinases (panel of 13 kinases): did not significantly inhibit; solubility [4]: 10 to 15 µM (≈ 4.41 to 6.61 µg/mL); cytotoxicity profile (MDCK-HA cell line): good cytotoxicity profile; viral NP mRNA expression levels [5]: reduced NP mRNA expression levels in a dose dependent matter
